Results on eleven compounds are retold here after patent EP4538258A1, “IMIDAZOLIDINYL VANILLIC ACID ETHER DERIVATIVE AND USE THEREOF” (Hefei Institute of Pharmaceutical Industry Co., Ltd., priority 2022, dated 2023).

In general, inhibition refers to the drop in the measured response relative to a control, in per cent.

Counter-ions that a name gives are not always drawn. Like-named read-outs stand apart in the source and are kept apart here.

Series [1] concerns arteriovenous bypass thrombi. In words: Antithrombotic activity in vivo: arteriovenous bypass thrombosis in rats. Also on record: species or system SD rats. The settings on record: single gavage 15 mg/kg; for inhibition at 15 mg/kg: Rattus norvegicus, po, vs blank control; for Thrombus wet weight: 1 h after administration, blood flow 15 min; for Thrombus wet weight / Thrombus dry weight: x±s, n=8; for Thrombus dry weight: thread dried at 70°C. As to the method:
104 SD rats (purchased from Weitong Lihua Experimental Animal Technology Co., Ltd., certificate number: 20211103Aazz0619000910), male, weighing 180-220 g, were randomly divided into 13 groups according to body weight after 7 days of adaptive feeding, with 8 rats in each group, namely, normal control group, compound A group, compound A methyl ester group, and Example 1-10 compound groups respectively. Each group was given corresponding drugs by gavage (dosage was 15 mg/kg), and the normal control group was given an equal volume of solvent, all of which were given by single gavage. One hour after the last administration, the rats were anesthetized with 3% chloral hydrate intraperitoneally, and the right common carotid artery and left external jugular vein were isolated in a supine position. A polyethylene tube was taken with an inner diameter of 1.5 mm and a length of 10 cm, a 6 cm long silk thread (preweighed) was inserted into it, and the polyethylene tube was filled with normal saline solution of heparin (50 U/ml). One end of the polyethylene tube was inserted into the left external jugular vein, heparin (50 U/kg) was injected, and the other end was inserted into the right common carotid artery. After blood flow was opened for 15 minutes, the blood flow was interrupted and the silk thread was quickly taken out and weighed. The total weight minus the original silk thread weight was the wet weight of the thrombus. The silk thread was placed in an oven for drying at 70°C. The dry weight of the thrombus was obtained by weighing the silk thread minus the original silk thread weight, and the inhibition rate was calculated. [formula] [formula]

Series [2] is described as follows: Pharmacokinetics in vivo in rats after gavage. Also on record: species or system SD male rats. The settings on record: rat, p.o. 15 mg/kg (calculated as Compound A), mean value. As to the method:
Eighteen SD male rats (purchased from Weitong Lihua Experimental Animal Technology Co., Ltd., certificate number: 20211103Aazz0619000910), weighing 240-280 g, were randomly divided into 6 groups, with 3 rats in each group. The animals were fasted overnight before administration. On the day of administration, the compounds of Examples 3, 4, 5, 6, Compound A, and Compound A methyl ester were gavaged to the animals in each groups respectively, and the dosage was 15 mg/kg (calculated as Compound A). Before administration and 0.25, 0.5, 1, 2, 4, 6, 8, and 24 h after administration, 0.15 mL of blood was collected from the animals through the jugular sinus and placed in an EDTA-K2 anticoagulant tube containing 3 µL of dichlorvos aqueous solution (10 mg/mL). After centrifugation, plasma was collected, and was placed in the sample, and then 10 µL of plasma sample was taken, 500 µL of acetonitrile containing IS (verapamil 5 ng·mL^-1, glibenclamide 50 ng·mL^-1, tolbutamide 200 ng·mL^-1, and diclofenac 200 ng·mL^-1) was added, vortexed for 10 min, and then centrifuged at 3700 rpm for 10 min, and then 70 µL of supernatant and 70 µL of water were added, and vortexed for 10 min. An aliquot of 2 µL of the mixture was injected into the LC-MS/MS system (Triple Quad 5500+: LC-MS-MS-022) to measure blood concentration of the compounds. […]

The mark [3] stands for this setting: read-out: Inhibition rate (thrombus dry weight).
[4] abbreviates: read-out: Inhibition rate (thrombus wet weight).

As to `COc1cc(C(=O)Oc2ccc(C[C@@H](N)C(=O)O)cc2)ccc1OCCn1ccnc1.Cl` [Example 10, (R)-4-(4-(2-(1H-imidazol-1-yl)ethoxy)-3-methoxybenzoyloxy)phenylalanine hydrochloride], the inhibition at 15 mg/kg was 55.1% in series [1] (setting [3]) and 47.5% in series [1] (setting [4]). Further, the Thrombus wet weight in series [1] is listed as 53.1±11.8^★★**## mg. The Thrombus dry weight in series [1] is 15.3±2.8^★★*## mg.

Consider `COc1cc(C(=O)O)ccc1OCCn1ccnc1` [Compound A], for which, in series [2], the MRTo-t was 5.4 h.

Regarding `CCCOC(=O)c1ccc(OCCn2ccnc2)c(OC)c1` [Example 1, propyl 4-(2-(1H-imidazol-1-yl)ethoxy)-3-methoxybenzoate], in series [1] (setting [3]), the inhibition at 15 mg/kg was found to be 52.9%. Besides, the inhibition at 15 mg/kg in series [1] (setting [4]) worked out at 45.9%. Moreover, in series [1], the Thrombus wet weight is on record as 54.8±12.7^★★*## mg and the Thrombus dry weight is 16.0±3.4^★★*## mg.

As for `COc1cc(C(=O)Oc2ccc(C[C@H](N)C(=O)O)cc2)ccc1OCCn1ccnc1.Cl` [Example 9, (S)-4-(4-(2-(1H-imidazol-1-yl)ethoxy)-3-methoxybenzoyloxy)phenylalanine hydrochloride], the inhibition at 15 mg/kg in series [1] (setting [3]) amounted to 57.4%. Further, in series [1] (setting [4]), the inhibition at 15 mg/kg amounted to 49.4%. Also, in series [1], the Thrombus wet weight was 51.1±12.7^★★**## mg and the Thrombus dry weight is given as 14.5±6.2^★★**## mg.

On to `COc1cc(C(=O)Nc2ccc(C[C@H](N)C(=O)O)cc2)ccc1OCCn1ccnc1.Cl` [Example 7, (S)-4-(4-(2-(1H-imidazol-1-yl)ethoxy)-3-methoxybenzamido)phenylalanine hydrochloride], for which the inhibition at 15 mg/kg in series [1] (setting [3]) is 52.6%. Also, the inhibition at 15 mg/kg in series [1] (setting [4]) was 46.2%. Besides, in series [1], the Thrombus wet weight is 54.4±9.8^★★*## mg and the Thrombus dry weight was 16.1±3.3^★★*## mg.

In the case of `COc1cc(C(=O)OC(C)C)ccc1OCCn1ccnc1.Cl` [Example 2, isopropyl 4-(2-(1H-imidazol-1-yl)ethoxy)-3-methoxybenzoate hydrochloride], the inhibition at 15 mg/kg in series [1] (setting [3]) is 54.8%. The inhibition at 15 mg/kg in series [1] (setting [4]) was 48.3%. Further, in series [1], the Thrombus wet weight is given as 52.3±10.5^★★**## mg and the Thrombus dry weight was 15.4±5.0^★★*## mg.

`COc1cc(C(=O)Nc2ccc(C[C@@H](N)C(=O)O)cc2)ccc1OCCn1ccnc1` [Example 8, (R)-3-(4-(4-(2-(1H-imidazol-1-yl)ethoxy)-3-methoxybenzamido)phenyl)-2-propionic acid hydrochloride]: the inhibition at 15 mg/kg in series [1] (setting [3]) stood at 57%. Moreover, the inhibition at 15 mg/kg in series [1] (setting [4]) is 48.6%. In addition, in series [1], the Thrombus wet weight is 52.0±13.5^★★**## mg and the Thrombus dry weight was 14.6±3.8^★★**## mg.

For the compound `COc1cc(C(=O)OC(C)OC(C)=O)ccc1OCCn1ccnc1` (stereo not drawn) [Example 6, 1-acetoxyethyl-4-(2-(1H-imidazol-1-yl)ethoxy)-3-methoxybenzoate], the inhibition at 15 mg/kg was 58.1% in series [1] (setting [3]) and 55.4% in series [1] (setting [4]). Moreover, the Thrombus wet weight in series [1] was 45.1±8.6^★★**## mg. For the same compound, the Thrombus dry weight in series [1] is 14.3±5.0^★★**## mg.

As to `COc1cc(C(=O)OCOC(=O)OC(C)C)ccc1OCCn1ccnc1` [Example 5, ((isopropoxycarbonyl)oxy)methyl-4-(2-(1H -imidazol-1-yl)ethoxy)-3-methoxybenzoate], the inhibition at 15 mg/kg turned out to be 55.9% in series [1] (setting [3]) and 53.5% in series [1] (setting [4]). The Thrombus wet weight in series [1] is listed as 47.0±8.7^★★**## mg. Further, the Thrombus dry weight in series [1] is given as 15.0±4.5^★★*## mg.

For the compound `COc1cc(C(=O)OCCCCCC(=O)O)ccc1OCCn1ccnc1` [Example 3, 6-(4-(2-(1H -imidazol-1-yl)ethoxy)-3-methoxybenzoyloxy)hexanoic acid], the inhibition at 15 mg/kg in series [1] (setting [3]) was found to be 64%. Besides, the inhibition at 15 mg/kg in series [1] (setting [4]) worked out at 53.3%. Moreover, in series [1], the Thrombus wet weight is 47.3±6.3^★★**## mg and the Thrombus dry weight is given as 12.3±5.7^★★**## mg.

Regarding `COC(=O)c1ccc(OCCn2ccnc2)c(OC)c1` [Compound A methyl ester, reference compound], the inhibition at 15 mg/kg in series [1] (setting [3]) came to 32.4%. Besides, the inhibition at 15 mg/kg in series [1] (setting [4]) amounted to 29.4%. For the same compound, in series [1], the Thrombus wet weight is 71.3±8.7^★★ mg and the Thrombus dry weight was 23.0±8.2^★★ mg. The MRTo-t in series [2] is recorded as 6.5 h.
